In ChEMBL document CHEMBL1201862, “PubChem BioAssay data set” (2004):
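Each compound was tested at five concentrations against cells in 96-well plates for 48 hours. At the GI50, growth is halved.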 Calls of active or inactive are those of the source. Rule as the data show it: active = GI50 up to about 1.1 µM and inactive = higher.

What was measured:
Test in all cases: NCI tumour cell line growth inhibition, 48 h
MDA-MB-231 = test system: MDA-MB-231
OVCAR-8 = test system: OVCAR-8
HCC 2998 = test system: HCC 2998
COLO 205 = test system: COLO 205
SF-539 = test system: SF-539
786-0 = test system: 786-0
PC-3 = test system: PC-3
NCI-H226 = test system: NCI-H226
OVCAR-5 = test system: OVCAR-5
SNB-75 = test system: SNB-75
EKVX = test system: EKVX
M14 = test system: M14
SK-MEL-2 = test system: SK-MEL-2
RPMI-8226 = test system: RPMI-8226
NCI-H522 = test system: NCI-H522
Hs-578T = test system: Hs-578T
CAKI-1 = test system: CAKI-1
HT-29 = test system: HT-29
SW-620 = test system: SW-620
KM12 = test system: KM12
A498 = test system: A498
SF-295 = test system: SF-295
A549 = test system: A549
SF-268 = test system: SF-268
SK-MEL-5 = test system: SK-MEL-5
OVCAR-3 = test system: OVCAR-3
HOP-62 = test system: HOP-62
U-251 = test system: U-251
BT-549 = test system: BT-549
MDA-N = test system: MDA-N
HOP-92 = test system: HOP-92
NCI-H23 = test system: NCI-H23
SNB-19 = test system: SNB-19
SK-MEL-28 = test system: SK-MEL-28
HCT-116 = test system: HCT-116
SR = test system: SR
TK-10 = test system: TK-10
DU-145 = test system: DU-145
NCI-H460 = test system: NCI-H460
HCT-15 = test system: HCT-15
NCI/ADR-RES = test system: NCI/ADR-RES
UACC-257 = test system: UACC-257
IGROV-1 = test system: IGROV-1
UACC-62 = test system: UACC-62
SK-OV-3 = test system: SK-OV-3
SN12C = test system: SN12C
LOX IMVI = test system: LOX IMVI
MCF7 = test system: MCF7
RXF 393 = test system: RXF 393
UO-31 = test system: UO-31
ACHN = test system: ACHN
T47D = test system: T47D
OVCAR-4 = test system: OVCAR-4
MDA-MB-435 = test system: MDA-MB-435
Malme-3M = test system: Malme-3M
MOLT-4 = test system: MOLT-4
K562 = test system: K562
HL-60 = test system: HL-60
CCRF-CEM = test system: CCRF-CEM

## N#CC1=C(N)OC2=C(CCCc3ccc([N+](=O)[O-])cc32)C1c1ccccc1 (configuration not stated)
MDA-MB-231
  GI50: 17.7 µM (inactive)
OVCAR-8
  GI50: 7.48 µM (inactive)
HCC 2998
  GI50: 2.18 µM (inactive)
COLO 205
  GI50: 3.69 µM (inactive)
SF-539
  GI50: 3.17 µM (inactive)
786-0
  GI50: 9.98 µM (inactive)
PC-3
  GI50: 8.3 µM (inactive)
NCI-H226
  GI50: 8.3 µM (inactive)
OVCAR-5
  GI50: 11 µM (inactive)
SNB-75
  GI50: 82.8 µM (inactive)
EKVX
  GI50: 6.19 µM (inactive)
M14
  GI50: 3.13 µM (inactive)
SK-MEL-2
  GI50: 4.58 µM (inactive)
RPMI-8226
  GI50: 2.9 µM (inactive)
NCI-H522
  GI50: 2.14 µM (inactive)
Hs-578T
  GI50: 15.9 µM (inactive)
CAKI-1
  GI50: 9.25 µM (inactive)
HT-29
  GI50: 3.44 µM (inactive)
SW-620
  GI50: 3.63 µM (inactive)
KM12
  GI50: 3.15 µM (inactive)
A498
  GI50: 2.76 µM (inactive)
SF-295
  GI50: 3.21 µM (inactive)
A549
  GI50: 6.21 µM (inactive)
SF-268
  GI50: 5.41 µM (inactive)
SK-MEL-5
  GI50: 3.38 µM (inactive)
OVCAR-3
  GI50: 2.21 µM (inactive)
HOP-62
  GI50: 4.17 µM (inactive)
U-251
  GI50: 4.71 µM (inactive)
BT-549
  GI50: 4.5 µM (inactive)
MDA-N
  GI50: 2.09 µM (inactive)
HOP-92
  GI50: 6.46 µM (inactive)
NCI-H23
  GI50: 4.97 µM (inactive)
SNB-19
  GI50: 5.86 µM (inactive)
SK-MEL-28
  GI50: 5.82 µM (inactive)
HCT-116
  GI50: 4.23 µM (inactive)
SR
  GI50: 2.36 µM (inactive)
TK-10
  GI50: 12.4 µM (inactive)
DU-145
  GI50: 4.86 µM (inactive)
NCI-H460
  GI50: 4.49 µM (inactive)
HCT-15
  GI50: 2.45 µM
NCI/ADR-RES
  GI50: 2.38 µM (inactive)
UACC-257
  GI50: 5.13 µM (inactive)
IGROV-1
  GI50: 4.19 µM (inactive)
UACC-62
  GI50: 1.98 µM (inactive)
SK-OV-3
  GI50: 8.07 µM (inactive)
SN12C
  GI50: 6 µM (inactive)
LOX IMVI
  GI50: 5.35 µM (inactive)
MCF7
  GI50: 3.45 µM (inactive)
RXF 393
  GI50: 4.18 µM (inactive)
UO-31
  GI50: 8.79 µM (inactive)
ACHN
  GI50: 10.8 µM (inactive)
T47D
  GI50: 6.24 µM (inactive)
OVCAR-4
  GI50: 6.41 µM (inactive)
MDA-MB-435
  GI50: 1.42 µM (inactive)
Malme-3M
  GI50: 7.45 µM (inactive)
MOLT-4
  GI50: 3.69 µM (inactive)
K562
  GI50: 2.57 µM (inactive)
HL-60
  GI50: 1.64 µM (inactive)

## CC(C)Cc1cc2c(cc1O)CCC1C2CC[C@@]2(C)C1CC[C@@H]2O (some centres not stated)
MDA-MB-231
  GI50: 7.59 µM (inactive)
OVCAR-8
  GI50: 6.35 µM (inactive)
HCC 2998
  GI50: 13.1 µM (inactive)
COLO 205
  GI50: 15.2 µM (inactive)
SF-539
  GI50: 19.5 µM (inactive)
786-0
  GI50: 8.13 µM (inactive)
PC-3
  GI50: 6.35 µM (inactive)
NCI-H226
  GI50: 4.79 µM (inactive)
OVCAR-5
  GI50: 16.1 µM (inactive)
SNB-75
  GI50: 5.68 µM (inactive)
EKVX
  GI50: 8.69 µM (inactive)
M14
  GI50: 7.87 µM (inactive)
SK-MEL-2
  GI50: 6.71 µM (inactive)
RPMI-8226
  GI50: 3.74 µM (inactive)
NCI-H522
  GI50: 6.25 µM (inactive)
CCRF-CEM
  GI50: 7.91 µM (inactive)
Hs-578T
  GI50: 6.19 µM (inactive)
CAKI-1
  GI50: 16 µM (inactive)
HT-29
  GI50: 8.02 µM (inactive)
SW-620
  GI50: 8.65 µM (inactive)
KM12
  GI50: 6.55 µM (inactive)
A498
  GI50: 18.3 µM (inactive)
SF-295
  GI50: 4.09 µM (inactive)
A549
  GI50: 6.84 µM (inactive)
SF-268
  GI50: 10.8 µM (inactive)
SK-MEL-5
  GI50: 7.45 µM (inactive)
OVCAR-3
  GI50: 5.57 µM (inactive)
HOP-62
  GI50: 11.6 µM (inactive)
U-251
  GI50: 10.7 µM (inactive)
BT-549
  GI50: 2.96 µM (inactive)
MDA-N
  GI50: 7.05 µM (inactive)
HOP-92
  GI50: 10.2 µM (inactive)
NCI-H23
  GI50: 8.39 µM (inactive)
SNB-19
  GI50: 7.46 µM (inactive)
SK-MEL-28
  GI50: 10.6 µM (inactive)
HCT-116
  GI50: 6.05 µM (inactive)
SR
  GI50: 3.85 µM (inactive)
TK-10
  GI50: 9.48 µM (inactive)
DU-145
  GI50: 9.2 µM (inactive)
NCI-H460
  GI50: 10.5 µM (inactive)
HCT-15
  GI50: 7.21 µM
NCI/ADR-RES
  GI50: 6.14 µM (inactive)
UACC-257
  GI50: 14.3 µM (inactive)
IGROV-1
  GI50: 15.1 µM (inactive)
UACC-62
  GI50: 7.71 µM (inactive)
SK-OV-3
  GI50: 8.17 µM (inactive)
SN12C
  GI50: 7.74 µM (inactive)
LOX IMVI
  GI50: 6.22 µM (inactive)
MCF7
  GI50: 8.43 µM (inactive)
RXF 393
  GI50: 4.35 µM (inactive)
UO-31
  GI50: 4.05 µM (inactive)
ACHN
  GI50: 6.95 µM (inactive)
T47D
  GI50: 5.04 µM (inactive)
OVCAR-4
  GI50: 8.97 µM (inactive)
MDA-MB-435
  GI50: 11.6 µM (inactive)
Malme-3M
  GI50: 17.7 µM (inactive)
MOLT-4
  GI50: 3.5 µM (inactive)
K562
  GI50: 3.83 µM (inactive)
HL-60
  GI50: 1.94 µM (inactive)
